Assay results from the supplement of paper PMC13380429.

Legend:
Details in all cases: 72 h
[1] = system: Caco-2; assay: cell viability relative to DMSO; higher = less toxic
[2] = system: Calu-3; assay: as above
[3] = system: Vero E6; assay: as above
[4] = system: Caco-2; assay: relative viability EC50 (midpoint between 100% and the lowest measured viability); higher = less toxic
[5] = system: Calu-3; assay: as above
[6] = system: Vero E6; assay: as above
[7] = system: Caco-2; assay: drug sensitivity score (DSS) for viability; higher = more toxic; extreme values may be limits of the assay
[8] = system: Calu-3; assay: as above
[9] = system: Vero E6; assay: as above
[10] = system: U2OS; assay: cell viability relative to DMSO; higher = less toxic
[11] = system: U2OS; assay: relative viability EC50 (midpoint between 100% and the lowest measured viability); higher = less toxic
[12] = system: U2OS; assay: drug sensitivity score (DSS) for viability; higher = more toxic; extreme values may be limits of the assay
[13] = system: HepG2; assay: cell viability relative to DMSO; higher = less toxic
[14] = system: HepG2; assay: relative viability EC50 (midpoint between 100% and the lowest measured viability); higher = less toxic
[15] = system: HepG2; assay: drug sensitivity score (DSS) for viability; higher = more toxic; extreme values may be limits of the assay

SMILES	cell viability ([1]; 1 nM) [%]	cell viability ([1]; 10 nM) [%]	cell viability ([1]; 100 nM) [%]	cell viability ([1]; 1000 nM) [%]	cell viability ([1]; 10000 nM) [%]	cell viability ([2]; 1 nM) [%]	cell viability ([2]; 10 nM) [%]	cell viability ([2]; 100 nM) [%]	cell viability ([2]; 1000 nM) [%]	cell viability ([2]; 10000 nM) [%]	cell viability ([3]; 1 nM) [%]	cell viability ([3]; 10 nM) [%]	cell viability ([3]; 100 nM) [%]	cell viability ([3]; 1000 nM) [%]	cell viability ([3]; 10000 nM) [%]	relative viability EC50 [4] [µM]	relative viability EC50 [5] [µM]	relative viability EC50 [6] [µM]	drug sensitivity score [7]	drug sensitivity score [8]	drug sensitivity score [9]	cell viability ([10]; 1 nM) [%]	cell viability ([10]; 10 nM) [%]	cell viability ([10]; 100 nM) [%]	cell viability ([10]; 1000 nM) [%]	cell viability ([10]; 10000 nM) [%]	relative viability EC50 [11] [µM]	drug sensitivity score [12]	cell viability ([13]; 1 nM) [%]	cell viability ([13]; 10 nM) [%]	cell viability ([13]; 100 nM) [%]	cell viability ([13]; 1000 nM) [%]	cell viability ([13]; 10000 nM) [%]	relative viability EC50 [14] [µM]	drug sensitivity score [15]
Cc1ccccc1CN1C2=NCCN2C(=O)C2=C1CCN(Cc1ccccc1)C2 [TIC10]	110	106	104	93.7	103	98.9	99.7	98	102	92.4	107	106	98.8	99.5	103	> 10	> 10	> 10	0	0	0														
O=C(O[C@@H]1Cc2c(O)cc(O)cc2O[C@@H]1c1ccc(O)c(O)c1)c1cc(O)c(O)c(O)c1 [epicatechin-gallate-(-)]	99.7	93.6	87.7	92	100	107	102	93.2	91	104	105	102	99	96.1	99	> 10	> 10	> 10	0	0	0	97.7	97.5	103	97.2	101	> 10	0							
COc1ccccc1OCC(O)CNC(C)C (centres undefined) [moprolol]	97.7	95.4	99.6	98.2	92.7						102	99.6	105	99.5	102	> 10		> 10	0		0	101	96.6	99.7	102	103	> 10	0	98.3	113	100	98.3	103	> 10	0
CCCCCCCCCCCCCCOC(=O)c1cccnc1 [myristyl-nicotinate]	98.2	103	97.7	97.8	103						96.6	98.2	97.6	102	101	> 10		> 10	0		0	101	96.7	101	98.4	102	> 10	0	98.7	93.5	105	99.4	102	> 10	0
c1ccc(Cn2c(N3CCNCC3)nc3ccccc32)cc1 [lerisetron]	100	98.6	104	98.9	96.5	97.6	95.8	100	98	96.3	103	100	99.4	98.7	96.6	> 10	> 10	> 10	0	0	0	99.2	95.4	105	98.1	99.9	> 10	0							
Cc1cccc(-c2n[nH]cc2-c2ccc(F)c(-c3cnn(CCO)c3)c2)n1	93.3	91.9	99.7	92.5	91.5						96.1	101	98	93.4	94.5	> 10		> 10	0		0	103	98.8	95.7	89.3	92.6	> 10	0.1	103	94.1	95.2	106	109	> 10	0
CCc1c(-c2ccccc2)c(-c2ccccc2)nn1-c1ccccc1-c1cccc(OCC(=O)O)c1	102	105	97.8	113	91.5	93.4	94.7	101	94	86.3	102	103	103	101	97.9	> 10	> 10	> 10	0	0.5	0	99.7	101	98	105	97.4	> 10	0							
CC(C)OC(=O)C(C)(C)Oc1ccc(C(=O)c2ccc(Cl)cc2)cc1 [fenofibrate]						103	111	102	36.9	94.5							> 10			0		100	100	98.4	95.7	92.6	> 10	0							
CN(c1ccc(NC(=O)Nc2ccccc2)cc1)S(=O)(=O)c1cnn(-c2ccc(F)cc2)c1 [BTT-3033]	101	115	96.3	109	100	96.7	104	97.6	97.5	106						> 10	> 10		0	0		104	104	101	111	99.8	> 10	0							
